Measured values taken from US9045491B2, “Thienyl [3,2-D] pyrimidin-4-one compounds, preparation method, pharmaceutical compositions and use thereof” (SHANGHAI INSTITUTE OF MATERIA MEDICA, CHINESE ACADEMY OF …, priority 2011, dated 2015).

Assays:
[1] = Safety evaluation: single dose 100 mg/kg by gavage, one week observation; assay type: in vivo, ICR mouse
Method: After grouping, each compound was administrated once through gavage according to the dose of 100 mg/kg at the same time.

normal ICR mouse = experiment: Oral glucose tolerance test (OGTT), acute hypoglycemic effect of single oral dose; assay type: in vivo
Method: Acute hypoglycemic effect of single dose through mouth on the normal ICR mouse
Animal: ICR mouse (8-10 weeks old, sex: male, weight: 25-30 g, purchased from Shanghai SLAC Laboratory Animal Center).
1. Two days before the experiment, the food consumption was recorded and the daily food consumption of each animal was calculated;
2. The animals fasted overnight (⅓ of daily food consumption was provided, about 2 g);
3. The blood glucose was measured on the second day.
4. The medicament was administrated through gavage (1 mouse/min). After 6 hours, the blood glucose was measured. Glucose was administrated through gavage according to the body weight (2.5 g/kg). The blood glucose value was monitored at 30 min, 60 min, 90 min, and 120 min after administration.

DPP IV = biological target: T1, DPP IV (Mus musculus, UniProt P28843); experiment: DPP IV inhibitory activity in vivo: DPP IV activity in plasma of ICR mouse after single oral dose; conditions: oral 3 mg/kg, compared with Alogliptin and Vildagliptin (LAF237), FIG. 1-6
T1 construct: from tissue; host or cells: plasma of ICR mouse
Method: Animals: ICR mouse (8-10 weeks old; sex: male; 25 g-30 g of body weight, purchased from Shanghai SLAC Laboratory Animal Center).
Meanwhile the solvent group was used as blank control. The blood was taken from orbital venous plexus of the mouse before administration, and 30, 60, 2 h, 4 h, 6 h, 8 h and […] after administration, respectively and loaded into Eppendorf tube (Qizhong Industrial (Shanghai) co., Ltd.) treated by anticoagulant. The plasma was obtained by centrifugation and DPP IV activity was determined.

[2] = normal ICR mouse, 100 mg/kg single dose, 7th day
[3] = normal ICR mouse, 100 mg/kg single dose, 1 d after administration
[4] = normal ICR mouse, 100 mg/kg single dose, 2 d after administration
[5] = normal ICR mouse, 100 mg/kg single dose, 3 d after administration
[6] = normal ICR mouse, 100 mg/kg single dose, 4 d after administration
[7] = normal ICR mouse, 100 mg/kg single dose, 5 d after administration
[8] = normal ICR mouse, 100 mg/kg single dose, 6 d after administration
[9] = normal ICR mouse, 100 mg/kg single dose, 7 d after administration
[10] = normal ICR mouse, 100 mg/kg single dose, before administration

T1 sequence (P28843 37-760 limits assumed): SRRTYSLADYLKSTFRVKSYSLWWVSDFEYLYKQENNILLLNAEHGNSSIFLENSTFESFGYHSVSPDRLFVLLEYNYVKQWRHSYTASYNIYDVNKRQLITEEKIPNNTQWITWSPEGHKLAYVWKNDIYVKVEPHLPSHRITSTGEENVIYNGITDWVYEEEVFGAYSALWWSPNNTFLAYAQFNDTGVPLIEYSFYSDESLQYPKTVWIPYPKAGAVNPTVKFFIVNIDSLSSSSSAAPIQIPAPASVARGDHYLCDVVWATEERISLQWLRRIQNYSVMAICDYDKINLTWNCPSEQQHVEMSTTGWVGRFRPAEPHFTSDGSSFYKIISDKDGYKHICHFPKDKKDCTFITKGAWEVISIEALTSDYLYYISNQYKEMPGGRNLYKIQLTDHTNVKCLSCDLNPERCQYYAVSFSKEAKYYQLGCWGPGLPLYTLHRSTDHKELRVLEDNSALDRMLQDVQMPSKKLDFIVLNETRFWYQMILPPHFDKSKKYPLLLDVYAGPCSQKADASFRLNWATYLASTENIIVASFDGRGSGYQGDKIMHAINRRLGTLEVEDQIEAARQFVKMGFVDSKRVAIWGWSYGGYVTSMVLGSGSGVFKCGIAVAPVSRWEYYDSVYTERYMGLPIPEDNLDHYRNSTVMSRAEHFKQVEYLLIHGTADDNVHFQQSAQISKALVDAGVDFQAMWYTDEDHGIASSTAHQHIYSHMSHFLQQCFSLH

SMILES: COC(=O)c1cc2nc(N3CCCC(N)C3)n(Cc3ccccc3C#N)c(=O)c2s1 (stereo not shown) [DC291407]
- effect on body weight (conclusion) ([1]; ICR mouse, 100 mg/kg single dose): possibly had no effect on body weight
- acute toxicity ([1]; ICR mouse, 100 mg/kg single dose by gavage, one week): did not reflect obvious acute toxicity
- body weight versus normal control group (statistics) ([1]; ICR mouse, 100 mg/kg single dose, from second day to 7 days, 100 mg/kg): significant statistical difference
- kidney index versus normal control group (in words) ([1]; ICR mouse, 100 mg/kg, 7th day after administration): did not significantly differ
- spleen index versus normal control group (in words) ([1]; ICR mouse, 100 mg/kg, 7th day after administration, 100 mg/kg): significantly increased
- spleen index versus normal control group (in words) ([1]; ICR mouse, 100 mg/kg, 7th day after administration, listed as DC29147, 100 mg/kg): statistical difference
- Kidney index [1, 2]: 1.5 ± 0.2%
- Liver index [1, 2]: 5.3 ± 0.4%
- Spleen index [1, 2]: 0.4 ± 0.0 %
- body weight [1, 3]: 30.0 ± 1.6 g
- food consumption [1, 3]: 18.4 g · day^−1 · cage^−1
- body weight [1, 4]: 30.0 ± 1.7 g
- food consumption [1, 4]: 18.5 g · day^−1 · cage^−1
- body weight [1, 5]: 29.7 ± 1.9 g
- food consumption [1, 5]: 19.0 g · day^−1 · cage^−1
- body weight [1, 6]: 30.0 ± 1.5 g
- food consumption [1, 6]: 19.4 g · day^−1 · cage^−1
- body weight [1, 7]: 30.5 ± 1.5 g
- food consumption [1, 7]: 22.3 g · day^−1 · cage^−1
- body weight [1, 8]: 30.4 ± 1.8 g
- food consumption [1, 8]: 22.6 g · day^−1 · cage^−1
- body weight [1, 9]: 30.6 ± 1.9 g
- food consumption [1, 9]: 23.5 g · day^−1 · cage^−1
- body weight [1, 10]: 29.7 ± 1.8 g
- food consumption [1, 10]: 21.4 g · day^−1 · cage^−1
- hypoglycemic ability in vivo, oral glucose tolerance test after multiple single-dose administration (normal ICR mouse; single administration at multiple doses, FIGS. 11-12): comparable to that of Alogliptin
- hypoglycemic ability in vivo, oral glucose tolerance test (normal ICR mouse; single dose 3 mg/kg by gavage, glucose 2.5 g/kg after 6 hours, FIGS. 7-10): comparable to that of Alogliptin
- DPP IV activity of ICR mouse plasma after single dose (given as hypoglycemic ability in vivo) (DPP IV): comparable to that of Alogliptin (3 mg), and better than that of Vildagliptin (LAF237, 15 mg)
